Measurements taken from patent publication US20120270915A1, “FATTY ACID AMIDE HYDROLASE INHIHIBITORS FOR TREATING PAIN” (priority 2011, published 2012).
Read-outs that look alike come from different tables or passages of the source.

Experiments:
FP receptor = FP receptor (Homo sapiens, UniProt P43088); assay: Prostanoid receptor antagonism (FLIPR), FP; type: cell-based
EP2 receptor = EP2 receptor (Homo sapiens, UniProt P43116); assay: Prostanoid receptor antagonism (FLIPR), EP2; type: cell-based
EP2 receptor, sequence (P43116 whole entry): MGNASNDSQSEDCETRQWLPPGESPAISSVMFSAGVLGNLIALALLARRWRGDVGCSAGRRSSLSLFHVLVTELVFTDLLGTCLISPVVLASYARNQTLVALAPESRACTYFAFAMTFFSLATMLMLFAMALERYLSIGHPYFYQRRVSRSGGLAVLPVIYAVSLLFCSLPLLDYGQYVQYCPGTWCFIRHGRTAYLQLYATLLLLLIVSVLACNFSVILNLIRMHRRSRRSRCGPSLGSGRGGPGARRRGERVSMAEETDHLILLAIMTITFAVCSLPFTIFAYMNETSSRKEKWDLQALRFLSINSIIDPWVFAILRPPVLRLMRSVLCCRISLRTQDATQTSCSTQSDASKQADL

IP receptor = IP receptor (Homo sapiens, UniProt P43119); assay: Prostanoid receptor antagonism (FLIPR), IP; type: cell-based
IP receptor, sequence (P43119 whole entry): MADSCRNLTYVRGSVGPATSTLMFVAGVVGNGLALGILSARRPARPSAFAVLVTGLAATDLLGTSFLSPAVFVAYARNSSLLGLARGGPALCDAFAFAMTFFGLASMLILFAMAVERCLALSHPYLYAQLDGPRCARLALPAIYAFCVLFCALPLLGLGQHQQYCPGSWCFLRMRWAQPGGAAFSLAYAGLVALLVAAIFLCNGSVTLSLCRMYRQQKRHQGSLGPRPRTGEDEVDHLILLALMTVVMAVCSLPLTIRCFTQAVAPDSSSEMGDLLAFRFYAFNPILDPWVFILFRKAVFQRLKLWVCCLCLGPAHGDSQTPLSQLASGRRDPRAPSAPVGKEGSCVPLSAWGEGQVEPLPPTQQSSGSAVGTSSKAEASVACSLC

EP1 receptor = target: T1, EP1 receptor (Homo sapiens, UniProt P34995); assay: Prostanoid receptor antagonism (FLIPR), EP1; type: cell-based
T1 sequence (P34995 1-402): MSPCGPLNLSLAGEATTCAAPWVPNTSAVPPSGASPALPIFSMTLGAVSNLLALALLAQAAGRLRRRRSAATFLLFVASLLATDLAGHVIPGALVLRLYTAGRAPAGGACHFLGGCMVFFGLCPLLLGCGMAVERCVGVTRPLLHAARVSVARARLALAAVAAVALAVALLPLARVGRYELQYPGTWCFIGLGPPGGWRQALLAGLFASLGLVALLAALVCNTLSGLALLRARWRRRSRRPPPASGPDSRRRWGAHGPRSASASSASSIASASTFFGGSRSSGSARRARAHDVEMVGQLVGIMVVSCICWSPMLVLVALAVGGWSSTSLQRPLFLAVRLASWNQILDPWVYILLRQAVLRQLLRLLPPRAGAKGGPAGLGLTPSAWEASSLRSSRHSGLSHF

TP receptor = target: T2, TP receptor (Homo sapiens, UniProt P21731); assay: Prostanoid receptor antagonism (FLIPR), TP; type: cell-based
T2 sequence (P21731 1-343): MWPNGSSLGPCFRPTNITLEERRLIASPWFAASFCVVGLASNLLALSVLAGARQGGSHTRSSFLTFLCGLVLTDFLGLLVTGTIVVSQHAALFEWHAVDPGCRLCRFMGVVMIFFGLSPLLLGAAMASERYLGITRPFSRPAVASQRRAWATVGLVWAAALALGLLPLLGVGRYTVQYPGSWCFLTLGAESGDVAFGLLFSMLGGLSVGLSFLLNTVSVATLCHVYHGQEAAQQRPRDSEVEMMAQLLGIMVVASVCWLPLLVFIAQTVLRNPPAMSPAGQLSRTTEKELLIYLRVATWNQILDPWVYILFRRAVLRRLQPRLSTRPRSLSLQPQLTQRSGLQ

EP4 receptor = EP4 receptor (Homo sapiens, UniProt P35408); assay: Prostanoid receptor antagonism (FLIPR), EP4; type: cell-based
EP4 receptor, sequence (P35408 whole entry): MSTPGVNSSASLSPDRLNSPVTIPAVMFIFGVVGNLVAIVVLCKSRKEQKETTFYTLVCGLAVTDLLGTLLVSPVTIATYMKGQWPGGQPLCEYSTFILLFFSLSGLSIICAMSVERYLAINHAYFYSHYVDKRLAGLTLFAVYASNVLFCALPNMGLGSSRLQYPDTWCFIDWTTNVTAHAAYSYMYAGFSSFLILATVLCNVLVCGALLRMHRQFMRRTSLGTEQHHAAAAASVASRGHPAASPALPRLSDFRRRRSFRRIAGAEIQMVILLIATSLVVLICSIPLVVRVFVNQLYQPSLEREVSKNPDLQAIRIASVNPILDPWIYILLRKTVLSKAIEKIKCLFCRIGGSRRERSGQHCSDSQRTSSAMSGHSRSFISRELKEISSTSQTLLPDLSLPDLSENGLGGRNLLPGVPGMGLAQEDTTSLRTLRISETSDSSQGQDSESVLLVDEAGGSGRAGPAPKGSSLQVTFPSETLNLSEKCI

EP3 receptor = target: T3, EP3 receptor (Homo sapiens, UniProt P43115); assay: Prostanoid receptor antagonism (FLIPR), EP3; type: cell-based
T3 sequence (P43115 1-390): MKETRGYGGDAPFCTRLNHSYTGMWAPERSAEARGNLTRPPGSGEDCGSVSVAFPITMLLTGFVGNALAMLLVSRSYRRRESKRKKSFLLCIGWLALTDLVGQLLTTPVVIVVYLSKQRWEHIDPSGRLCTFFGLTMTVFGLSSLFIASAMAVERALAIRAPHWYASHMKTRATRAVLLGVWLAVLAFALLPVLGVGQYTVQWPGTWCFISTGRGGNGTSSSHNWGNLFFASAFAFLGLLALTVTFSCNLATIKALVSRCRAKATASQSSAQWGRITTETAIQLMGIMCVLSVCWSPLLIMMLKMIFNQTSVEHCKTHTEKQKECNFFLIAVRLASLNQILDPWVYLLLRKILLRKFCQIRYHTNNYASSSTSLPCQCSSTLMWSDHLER

FAAH Rat brain = target: T4, FAAH Rat brain (Rattus norvegicus, UniProt P97612); assay: FAAH inhibitory activity, rat brain membranes, [14C]-AEA hydrolysis; type: biochemical
T4 construct: from tissue; host or cells: rat brain membranes
T4 sequence (P97612 1-579): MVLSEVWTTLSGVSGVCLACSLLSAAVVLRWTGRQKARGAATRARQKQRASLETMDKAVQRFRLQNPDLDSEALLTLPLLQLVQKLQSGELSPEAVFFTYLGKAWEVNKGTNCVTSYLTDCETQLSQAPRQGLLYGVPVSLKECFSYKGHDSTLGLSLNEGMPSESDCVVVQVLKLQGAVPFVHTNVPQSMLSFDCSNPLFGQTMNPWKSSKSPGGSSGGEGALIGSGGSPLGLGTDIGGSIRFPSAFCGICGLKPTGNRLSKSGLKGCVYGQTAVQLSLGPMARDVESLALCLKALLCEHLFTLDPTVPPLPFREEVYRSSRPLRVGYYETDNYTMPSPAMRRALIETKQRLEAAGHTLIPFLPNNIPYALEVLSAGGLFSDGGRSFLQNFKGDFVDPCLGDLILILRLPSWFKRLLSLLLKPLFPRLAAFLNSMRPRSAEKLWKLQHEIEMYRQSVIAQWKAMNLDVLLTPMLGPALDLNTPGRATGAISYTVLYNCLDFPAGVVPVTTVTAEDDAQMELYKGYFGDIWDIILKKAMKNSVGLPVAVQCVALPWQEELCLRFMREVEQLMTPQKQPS
Description: The compounds of Examples 12, and 19 are tested for FAAH inhibitory activity as follows:
Method 1: Membranes obtained from rat brain are incubated with 2 mM [^14C]-AEA, 30 min at 37° C. at pH values ranging from 9.00 to 10.00 in presence and absence of tested compounds in a final volume of […]. Incubation is stopped by extraction with CHCl3/MeOH (1:1) and the aqueous phases containing [^14C]-Ethanolamine produced by [^14C]-AEA hydrolysis are measured.

DP receptor = target: T5, DP receptor (Homo sapiens, UniProt Q13258); assay: Prostanoid receptor antagonism (FLIPR), DP; type: cell-based
T5 sequence (Q13258 1-359): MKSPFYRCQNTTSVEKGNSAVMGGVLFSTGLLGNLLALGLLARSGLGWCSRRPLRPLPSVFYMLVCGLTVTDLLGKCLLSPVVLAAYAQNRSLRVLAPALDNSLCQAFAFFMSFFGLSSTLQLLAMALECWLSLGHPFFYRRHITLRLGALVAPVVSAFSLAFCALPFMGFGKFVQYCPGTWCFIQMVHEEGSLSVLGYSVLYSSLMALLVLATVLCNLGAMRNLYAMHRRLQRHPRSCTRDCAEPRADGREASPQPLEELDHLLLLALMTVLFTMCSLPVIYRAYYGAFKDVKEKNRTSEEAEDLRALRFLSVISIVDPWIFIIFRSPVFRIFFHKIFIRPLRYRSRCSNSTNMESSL

[1] = Table 1, rat brain, read-out: FAAH Rat brain IC50
[2] = Table 2, rat brain, read-out: FAAH Rat brain IC50
[3] = Table 3, quantity, enzyme source and unit inferred, read-out: FAAH

FP receptor, sequence (P43088 whole entry): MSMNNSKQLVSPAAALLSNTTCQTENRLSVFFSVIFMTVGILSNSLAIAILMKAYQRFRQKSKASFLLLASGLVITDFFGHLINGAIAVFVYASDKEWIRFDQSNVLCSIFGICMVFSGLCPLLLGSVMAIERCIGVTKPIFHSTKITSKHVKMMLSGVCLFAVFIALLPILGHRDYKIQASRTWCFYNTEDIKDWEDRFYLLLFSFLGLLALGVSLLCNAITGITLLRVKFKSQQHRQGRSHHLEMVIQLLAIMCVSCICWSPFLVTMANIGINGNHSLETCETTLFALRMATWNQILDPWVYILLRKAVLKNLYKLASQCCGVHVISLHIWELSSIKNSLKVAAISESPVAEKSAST

Compound	Kb (FP receptor; Table 1)	Kb (EP2 receptor; Table 1)	Kb (IP receptor; Table 1)	Kb (EP1 receptor; Table 1)	Kb (TP receptor; Table 1)	Kb (EP4 receptor; Table 1)	Kb (EP3 receptor; Table 1)	IC50 (FAAH Rat brain; [1])	Kb (DP receptor; Table 1)	Kb (FP receptor; Table 2)	Kb (EP1 receptor; Table 2)	Kb (TP receptor; Table 2)	Kb (EP4 receptor; Table 2)	Kb (EP3 receptor; Table 2)	IC50 (FAAH Rat brain; [2])	Kb (DP receptor; Table 2)	further results
COc1ccc(CCC(=O)NS(=O)(=O)C(F)(F)F)c(CN2CCC[C@H]2c2nc(C(=O)NCCCCC3CCCCC3)co2)c1 [Example 12c, (S)—N-(4-cyclohexylbutyl)-2-(1-(5-methoxy-2-(3-oxo-3-(trifluoromethylsulfonamido)propyl)benzyl)pyrrolidin-2-yl)oxazole-4-carboxamide]	270 nM	0.83 µM	860 nM	20 nM	< 1 nM	10 nM	47 nM	200 nM	17 nM								
O=C(CCc1cc2c(cc1CN1CCC[C@H]1c1nc(C(=O)NCCCCC3CCCCC3)co1)OCO2)NS(=O)(=O)C(F)(F)F [Example 12d]	360 nM	3.9 µM	1000 nM	60 nM	0.3 nM	7 nM	150 nM	740 nM	3 nM								
CCCCCCCCNC(=O)c1coc([C@@H]2CCCN2Cc2cc(F)ccc2CCC(=O)NS(=O)(=O)C(F)(F)F)n1 [Example 12e, 2-{1-[5-fluoro-2-(3-oxo-3-{[(trifluoromethyl)sulfonyl]amino}propyl)benzyl]pyrrolidin-2-yl}-N-octyl-1,3-oxazole-4-carboxamide]	270 nM	2.5 µM	290 nM	20 nM	< 1 nM	20 nM	110 nM		20 nM								IC50 (FAAH Rat brain): 2100 nM
COc1ccc(CCC(=O)NS(=O)(=O)C(C)C)c(CN2CCC[C@H]2c2nc(C(=O)NCCCCC3CCCCC3)co2)c1 [Example 12i, (S)—N-(4-cyclohexylbutyl)-2-(1-(5-methoxy-2-(3-oxo-3-(isopropylsulfonamido)propyl)benzyl)pyrrolidin-2-yl)oxazole-4-carboxamide]										1500 nM	1900 nM	1 nM	210 nM	480 nM	150 nM	44 nM	
COc1ccc(CCC(=O)NS(=O)(=O)c2ccc(Cl)s2)c(CN2CCC[C@H]2c2nc(C(=O)NCCCCC3CCCCC3)co2)c1 [Example 12j, (S)—N-(4-cyclohexylbutyl)-2-(1-(5-methoxy-2-(3-oxo-3-(5-chlorothienylsulfonamido)propyl)benzyl)pyrrolidin-2-yl)oxazole-4-carboxamide]										2300 nM	240 nM	4 nM	360 nM	10 nM	210 nM	28 nM	Kb (EP2 receptor; Table 2, NA = inactive): 0.9 µM
COc1ccc(CCC(=O)O)c(C(=O)N2CCC[C@H]2c2nc(C(=O)NCCCCC3CCCCC3)co2)c1 [Example 19]																	IC50 (FAAH Rat brain; [3]): 180 nM
CCS(=O)(=O)NC(=O)CCc1ccc(OC)cc1C(=O)N1CCC[C@H]1c1nc(C(=O)NCCCCC2CCCCC2)co1 [Example 19a, 2-{(S)-1-[2-(3-Ethanesulfonylamino-3-oxo-propyl)-5-methoxy-benzoyl]-pyrrolidin-2-yl}-oxazole-4-carboxylic acid (4-cyclohexyl-butyl)-amide]																	IC50 (FAAH Rat brain; [3]): 20 nM
COc1ccc(CCC(=O)NS(C)(=O)=O)c(C(=O)N2CCC[C@H]2c2nc(C(=O)NCCCCC3CCCCC3)co2)c1 [Example 19b, 2-{(S)-1-[2-(3-Methanesulfonylamino-3-oxo-propyl)-5-methoxy-benzoyl]-pyrrolidin-2-yl}-oxazole-4-carboxylic acid (4-cyclohexyl-butyl)-amide]																	IC50 (FAAH Rat brain; [3]): 30 nM

More lines, main results first:

Kb (FP receptor; Table 1)	Kb (EP2 receptor; Table 1)	Kb (IP receptor; Table 1)	Kb (EP1 receptor; Table 1)	Kb (TP receptor; Table 1)	Kb (EP4 receptor; Table 1)	Kb (EP3 receptor; Table 1)	IC50 (FAAH Rat brain; [1])	Kb (DP receptor; Table 1)	Kb (FP receptor; Table 2)	Kb (EP1 receptor; Table 2)	Kb (TP receptor; Table 2)	Kb (EP4 receptor; Table 2)	Kb (EP3 receptor; Table 2)	IC50 (FAAH Rat brain; [2])	Kb (DP receptor; Table 2)	Compound	further results
350 nM	6.4 µM	550 nM	50 nM	< 1 nM	40 nM	80 nM	1000 nM	< 1 nM								O=C(CCc1ccc(F)cc1CN1CCC[C@H]1c1nc(C(=O)NCCCCC2CCCCC2)co1)NS(=O)(=O)C(F)(F)F [Example 12a]	
460 nM	5.5 µM	9500 nM	70 nM	< 1 nM	40 nM	100 nM	4500 nM	< 1 nM								O=C(CCc1ccc(Cl)cc1CN1CCC[C@H]1c1nc(C(=O)NCCCCC2CCCCC2)co1)NS(=O)(=O)C(F)(F)F [Example 12b, (S)—N-(4-cyclohexylbutyl)-2-(1-(5-chloro-2-(3-oxo-3-(trifluoromethylsulfonamido)propyl)benzyl)pyrrolidin-2-yl)oxazole-4-carboxamide]	
380 nM	1.1 µM	400 nM	60 nM	< 1 nM	20 nM	140 nM	500 nM	< 1 nM								CCCCCCCCNC(=O)c1coc([C@@H]2CCCN2Cc2cc(OC)ccc2CCC(=O)NS(=O)(=O)C(F)(F)F)n1 [Example 12f, 2-{1-(5-methoxy-2-(3-oxo-3-{[(trifluoromethyl)sulfonyl]amino]propyl)benzyl]pyrrolidin-2-yl}-N-octyl-1,3-oxazole-4-carboxamide]	
									2000 nM	830 nM	8 nM	150 nM	50 nM	100 nM	8 nM	COc1ccc(CCC(=O)NS(=O)(=O)CCCF)c(CN2CCC[C@H]2c2nc(C(=O)NCCCCC3CCCCC3)co2)c1 [Example 12h, 2(S)—N-(4-cyclohexylbutyl)-2-(1-(5-methoxy-2-(3-oxo-3-(fluoropropylsulfonamido)propyl)benzyl)pyrrolidin-2-yl)oxazole-4-carboxamide]	Kb (EP2 receptor; Table 2, NA = inactive): 7.8 µM
									1400 nM	3100 nM	13 nM	400 nM	5600 nM	200 nM	80 nM	COc1ccc(CCC(=O)NS(=O)(=O)N(C)C)c(CN2CCC[C@H]2c2nc(C(=O)NCCCCC3CCCCC3)co2)c1 [Example 12k]	Kb (EP2 receptor; Table 2, NA = inactive): 4 µM; Kb (IP receptor; Table 2, NA = inactive): 2900 nM
